Tests used:
EIF2AK2 = EIF2AK2 (Homo sapiens, UniProt P19525); conditions: binds ATP-binding site; inhibits RNA-induced EIF2AK2 autophosphorylation (Jammi et al. 2003); cited from earlier work
[1] = tested on: Firefly Luciferase reporter gene driven by the C3P3-G1 system in HEK-293 cells; format: cell-based, human
[2] = tested on: Firefly Luciferase reporter gene driven by the C3P3-G2 system in HEK-293 cells; format: cell-based, human

Sequence of EIF2AK2 (P19525 whole entry): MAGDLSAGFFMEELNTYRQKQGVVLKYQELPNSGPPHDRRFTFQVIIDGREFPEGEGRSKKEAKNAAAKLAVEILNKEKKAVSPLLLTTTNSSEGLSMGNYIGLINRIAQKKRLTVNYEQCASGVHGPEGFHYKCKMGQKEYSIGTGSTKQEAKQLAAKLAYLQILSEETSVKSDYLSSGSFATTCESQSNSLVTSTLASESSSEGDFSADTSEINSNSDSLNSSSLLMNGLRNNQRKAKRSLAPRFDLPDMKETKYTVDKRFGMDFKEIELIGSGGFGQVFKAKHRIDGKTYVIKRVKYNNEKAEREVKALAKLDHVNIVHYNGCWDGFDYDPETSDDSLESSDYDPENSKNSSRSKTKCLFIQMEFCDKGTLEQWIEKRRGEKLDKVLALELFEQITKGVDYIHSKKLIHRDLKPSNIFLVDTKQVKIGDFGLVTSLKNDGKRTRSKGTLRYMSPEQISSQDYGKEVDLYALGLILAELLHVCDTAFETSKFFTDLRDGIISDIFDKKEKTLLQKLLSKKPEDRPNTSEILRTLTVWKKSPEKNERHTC

## O=C1Nc2ccc3ncsc3c2/C1=C/c1cnc[nH]1 [CAS 608512-97-6]
EIF2AK2
  IC50: 210 nM
[1]
  Maximum efficacy, relative ratio vs. negative control cells: 1.31 fold
[2]
  Maximum efficacy, relative ratio vs. negative control cells: 1.67 fold
